Measurements from ChEMBL document CHEMBL3885881, “DrugMatrix”.

Species on record: Rattus norvegicus
Assay: DrugMatrix - Regimen: Daily Repeat
Format: toxicity, organism-based, Sprague-Dawley
Set-up: regimen Daily Repeat, gender Male, age 6-8 weeks
Details: in vivo, po, route oral GAVAGE, vehicle .5 % CMC; for ABSOLUTE BASOPHIL / ABSOLUTE EOSINOPHIL / ABSOLUTE LYMPHOCYTE / ABSOLUTE MONOCYTE / ABSOLUTE SEGMENTED NEUTROPHIL / BASOPHIL / EOSINOPHIL / ERYTHROCYTE COUNT / HEMATOCRIT / HEMOGLOBIN / LEUKOCYTE COUNT / LYMPHOCYTE / MEAN CORPUSCULAR HEMOGLOBIN / MEAN CORPUSCULAR HEMOGLOBIN CONCENTRATION / MEAN CORPUSCULAR VOLUME / MONOCYTE / NEUTROPHIL / NUCLEATED RED BLOOD CELLS / PLATELET COUNT: tissue Blood; for ALANINE AMINOTRANSFERASE / ALBUMIN / ALKALINE PHOSPHATASE / ASPARTATE AMINOTRANSFERASE / BLOOD UREA NITROGEN / CARBON DIOXIDE / CHLORIDE / CHOLESTEROL / CREATINE PHOSPHOKINASE / CREATININE / GLUCOSE / LACTATE DEHYDROGENASE / LIPASE / PHOSPHORUS / POTASSIUM / SODIUM / TOTAL BILIRUBIN / TOTAL PROTEIN / URIC ACID: tissue Plasma
[1] = 0 mg/kg, 72 h, dose level Control, time 3 day
[2] = 0 mg/kg, 120 h, dose level Control, time 5 day
[3] = 3 mg/kg, 72 h, dose level Low, time 3 day

COc1nc(C)nc(Cl)c1N=C1NCCN1 [MOXONIDINE]
ABSOLUTE BASOPHIL [1]: 0 CELLS/uL
ABSOLUTE EOSINOPHIL [1]: 47.67 CELLS/uL
ABSOLUTE LYMPHOCYTE [1]: 15937.67 CELLS/uL
ABSOLUTE MONOCYTE [1]: 138.33 CELLS/uL
ABSOLUTE SEGMENTED NEUTROPHIL [1]: 1443 CELLS/uL
BASOPHIL [1]: 0%
EOSINOPHIL [1]: 0.33%
ERYTHROCYTE COUNT [1]: 5.45 x10E6/uL
HEMATOCRIT [1]: 34.43%
HEMOGLOBIN [1]: 13.38 G/DL
LEUKOCYTE COUNT [1]: 17.57 x10E3/uL
LYMPHOCYTE [1]: 90.33%
MEAN CORPUSCULAR HEMOGLOBIN [1]: 24.6 pg
MEAN CORPUSCULAR HEMOGLOBIN CONCENTRATION [1]: 38.88 G/DL
MEAN CORPUSCULAR VOLUME [1]: 63.27 fL
MONOCYTE [1]: 0.83%
NEUTROPHIL [1]: 8.5%
NUCLEATED RED BLOOD CELLS [1]: 0 /100WBC
PLATELET COUNT [1]: 1298 x10E3/uL
ALANINE AMINOTRANSFERASE [1]: 47.67 u/L
ALBUMIN [1]: 4.18 G/DL
ALKALINE PHOSPHATASE [1]: 398.5 u/L
ASPARTATE AMINOTRANSFERASE [1]: 93.17 u/L
BLOOD UREA NITROGEN [1]: 16 mg/dL
CARBON DIOXIDE [1]: 29.17 mmol/L
CHLORIDE [1]: 98.17 MEQ/L
CHOLESTEROL [1]: 68.83 mg/dL
CREATINE PHOSPHOKINASE [1]: 467.33 u/L
CREATININE [1]: 0.14 mg/dL
GLUCOSE [1]: 151.67 mg/dL
LACTATE DEHYDROGENASE [1]: 597.5 u/L
LIPASE [1]: 9.33 u/L
PHOSPHORUS [1]: 11.97 mg/dL
POTASSIUM [1]: 6.43 MEQ/L
SODIUM [1]: 140.68 MEQ/L
TOTAL BILIRUBIN [1]: 0.18 mg/dL
TOTAL PROTEIN [1]: 5.82 G/DL
URIC ACID [1]: 1.48 mg/dL
ABSOLUTE BASOPHIL [2]: 0 CELLS/uL
ABSOLUTE EOSINOPHIL [2]: 31 CELLS/uL
ABSOLUTE LYMPHOCYTE [2]: 14327.83 CELLS/uL
ABSOLUTE MONOCYTE [2]: 102.83 CELLS/uL
ABSOLUTE SEGMENTED NEUTROPHIL [2]: 1321.67 CELLS/uL
BASOPHIL [2]: 0%
EOSINOPHIL [2]: 0.17%
ERYTHROCYTE COUNT [2]: 5.79 x10E6/uL
HEMATOCRIT [2]: 36.1%
HEMOGLOBIN [2]: 14.15 G/DL
LEUKOCYTE COUNT [2]: 15.78 x10E3/uL
LYMPHOCYTE [2]: 90.5%
MEAN CORPUSCULAR HEMOGLOBIN [2]: 24.48 pg
MEAN CORPUSCULAR HEMOGLOBIN CONCENTRATION [2]: 39.22 G/DL
MEAN CORPUSCULAR VOLUME [2]: 62.4 fL
MONOCYTE [2]: 0.67%
NEUTROPHIL [2]: 8.67%
NUCLEATED RED BLOOD CELLS [2]: 0.17 /100WBC
PLATELET COUNT [2]: 1211.67 x10E3/uL
ALANINE AMINOTRANSFERASE [2]: 49 u/L
ALBUMIN [2]: 4.27 G/DL
ALKALINE PHOSPHATASE [2]: 356.67 u/L
ASPARTATE AMINOTRANSFERASE [2]: 90.17 u/L
BLOOD UREA NITROGEN [2]: 20.5 mg/dL
CARBON DIOXIDE [2]: 29.17 mmol/L
CHLORIDE [2]: 98 MEQ/L
CHOLESTEROL [2]: 69.83 mg/dL
CREATINE PHOSPHOKINASE [2]: 312 u/L
CREATININE [2]: 0.21 mg/dL
GLUCOSE [2]: 149.83 mg/dL
LACTATE DEHYDROGENASE [2]: 322 u/L
LIPASE [2]: 10 u/L
PHOSPHORUS [2]: 12 mg/dL
POTASSIUM [2]: 6.75 MEQ/L
SODIUM [2]: 142.8 MEQ/L
TOTAL BILIRUBIN [2]: 0.17 mg/dL
TOTAL PROTEIN [2]: 6.1 G/DL
URIC ACID [2]: 1.68 mg/dL
ABSOLUTE BASOPHIL [3]: 0 CELLS/uL
ABSOLUTE EOSINOPHIL [3]: 88 CELLS/uL
ABSOLUTE LYMPHOCYTE [3]: 13570 CELLS/uL
ABSOLUTE MONOCYTE [3]: 44 CELLS/uL
ABSOLUTE SEGMENTED NEUTROPHIL [3]: 1298 CELLS/uL
BASOPHIL [3]: 0%
EOSINOPHIL [3]: 0.67%
ERYTHROCYTE COUNT [3]: 5.63 x10E6/uL
HEMATOCRIT [3]: 34.87%
HEMOGLOBIN [3]: 13.07 G/DL
LEUKOCYTE COUNT [3]: 15 x10E3/uL
LYMPHOCYTE [3]: 89.67%
MEAN CORPUSCULAR HEMOGLOBIN [3]: 23.2 pg
MEAN CORPUSCULAR HEMOGLOBIN CONCENTRATION [3]: 37.5 G/DL
MEAN CORPUSCULAR VOLUME [3]: 61.9 fL
MONOCYTE [3]: 0.33%
NEUTROPHIL [3]: 9.33%
NUCLEATED RED BLOOD CELLS [3]: 0 /100WBC
PLATELET COUNT [3]: 1254.67 x10E3/uL
ALANINE AMINOTRANSFERASE [3]: 48 u/L
ALBUMIN [3]: 4 G/DL
ALKALINE PHOSPHATASE [3]: 327.67 u/L
ASPARTATE AMINOTRANSFERASE [3]: 95 u/L
BLOOD UREA NITROGEN [3]: 17 mg/dL
CARBON DIOXIDE [3]: 29 mmol/L
CHLORIDE [3]: 99.33 MEQ/L
CHOLESTEROL [3]: 69.67 mg/dL
CREATINE PHOSPHOKINASE [3]: 328.67 u/L
CREATININE [3]: 0.17 mg/dL
GLUCOSE [3]: 144 mg/dL
LACTATE DEHYDROGENASE [3]: 269.67 u/L
LIPASE [3]: 10.33 u/L
PHOSPHORUS [3]: 12.07 mg/dL
POTASSIUM [3]: 5.9 MEQ/L
SODIUM [3]: 142.9 MEQ/L
TOTAL BILIRUBIN [3]: 0.23 mg/dL
TOTAL PROTEIN [3]: 5.53 G/DL
URIC ACID [3]: 1.4 mg/dL
